From ChEMBL document CHEMBL1201862, “PubChem BioAssay data set” (2004)
The source made the active and inactive calls.

Columns and labels:
Coagulation factor XII = target: T1, Coagulation factor XII (Homo sapiens, UniProt P00748); type: functional;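 also: activated factor XIIa alpha cleaving a fluorogenic AMC peptide substrate; inhibitor potency from loss of enzyme activity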
T1 sequence (P00748 whole entry): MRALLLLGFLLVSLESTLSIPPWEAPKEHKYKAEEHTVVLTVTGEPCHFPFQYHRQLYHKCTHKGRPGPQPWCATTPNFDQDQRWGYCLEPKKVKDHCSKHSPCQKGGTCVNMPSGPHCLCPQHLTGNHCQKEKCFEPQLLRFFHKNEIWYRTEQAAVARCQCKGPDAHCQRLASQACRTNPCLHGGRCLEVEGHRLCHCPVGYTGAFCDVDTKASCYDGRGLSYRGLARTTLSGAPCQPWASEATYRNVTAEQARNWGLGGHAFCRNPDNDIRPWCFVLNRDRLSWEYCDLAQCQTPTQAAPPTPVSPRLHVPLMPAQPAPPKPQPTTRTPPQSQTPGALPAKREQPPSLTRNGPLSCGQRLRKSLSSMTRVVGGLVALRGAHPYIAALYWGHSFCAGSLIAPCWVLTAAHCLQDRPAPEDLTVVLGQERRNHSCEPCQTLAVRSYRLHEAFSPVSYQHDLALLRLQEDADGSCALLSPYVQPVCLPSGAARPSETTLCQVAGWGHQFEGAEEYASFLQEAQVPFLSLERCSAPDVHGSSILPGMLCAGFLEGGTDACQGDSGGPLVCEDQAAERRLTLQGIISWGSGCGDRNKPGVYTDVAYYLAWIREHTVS

[1] = target: Peroxisome proliferator-activated receptor gamma/Nuclear receptor coactivator 3 (Homo sapiens, UniProt P37231); experiment: TR-FRET dose response biochemical High Throughput Screening assay for agonists of the steroid receptor coactivator 3 (SRC-3) recruitment by the peroxisome proliferator-activated receptor gamma (PPAR gamma): non-selective agonists. [Related pubchem assays: 1301 (Confirmation screen.), 1048 (Primary screen.)]; type: functional
[2] = target: Peroxisome proliferator-activated receptor gamma/Nuclear receptor coactivator 2 (Homo sapiens, UniProt P37231); experiment: TR-FRET dose response biochemical High Throughput Screening assay for agonists of the steroid receptor coactivator 2 (SRC-2) recruitment by the peroxisome proliferator-activated receptor gamma (PPAR gamma): non-selective agonists. [Related pubchem assays: 1297, 1032 ]; type: functional
[3] = target: Peroxisome proliferator-activated receptor gamma/Nuclear receptor coactivator 1 (Homo sapiens, UniProt P37231); experiment: TR-FRET dose response biochemical High Throughput Screening assay for agonists of the steroid receptor coactivator 1 (SRC-1) recruitment by the peroxisome proliferator-activated receptor gamma (PPAR gamma): non-selective agonists. [Related pubchem assays (depositor defined):AID1300, AID1808, AID504735, AID631]; type: protein assay
[4] = target: Eukaryotic translation initiation factor 4E (Mus musculus, UniProt P63073); experiment: eIF4E–eIF4G protein interaction inhibitors, dose response, biochemical, TR-FRET (AID 855); type: functional;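 also: potency for disrupting eIF4E binding to eIF4GI seen as loss of FRET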
Chain of Eukaryotic translation initiation factor 4E (P63073 whole entry): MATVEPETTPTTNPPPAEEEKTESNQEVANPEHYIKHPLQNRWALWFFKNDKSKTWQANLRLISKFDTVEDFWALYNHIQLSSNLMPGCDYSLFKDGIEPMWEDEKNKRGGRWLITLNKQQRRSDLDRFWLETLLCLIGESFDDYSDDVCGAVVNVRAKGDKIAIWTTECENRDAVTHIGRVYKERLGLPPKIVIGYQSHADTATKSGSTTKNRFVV

[5] = target: T2, Kappa-type opioid receptor (Homo sapiens, UniProt P41145); type: functional
T2 sequence (P41145 whole entry): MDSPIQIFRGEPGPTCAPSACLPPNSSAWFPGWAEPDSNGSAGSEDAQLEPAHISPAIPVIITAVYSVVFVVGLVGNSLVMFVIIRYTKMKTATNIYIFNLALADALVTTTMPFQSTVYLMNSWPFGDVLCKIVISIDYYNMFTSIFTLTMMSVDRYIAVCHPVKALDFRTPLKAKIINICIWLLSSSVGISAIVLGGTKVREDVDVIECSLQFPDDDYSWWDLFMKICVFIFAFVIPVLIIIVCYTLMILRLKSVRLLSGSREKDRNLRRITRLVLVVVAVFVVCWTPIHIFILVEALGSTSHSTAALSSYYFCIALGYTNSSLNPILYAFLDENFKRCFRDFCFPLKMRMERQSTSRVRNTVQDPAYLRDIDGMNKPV

[6] = target: T2, Kappa-type opioid receptor; type: functional; remark: listed apart in the source
Mu-type opioid receptor = Mu-type opioid receptor (Homo sapiens, UniProt P35372); experiment: HTS Image-Based Screen for Agonists of the MOR Receptor. [Related pubchem assays (depositor defined):AID1777, AID1785, AID1786, AID2133]; type: functional;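 also: imaging of beta-arrestin GFP recruitment into spots after receptor activation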
Chain of Mu-type opioid receptor (P35372 whole entry): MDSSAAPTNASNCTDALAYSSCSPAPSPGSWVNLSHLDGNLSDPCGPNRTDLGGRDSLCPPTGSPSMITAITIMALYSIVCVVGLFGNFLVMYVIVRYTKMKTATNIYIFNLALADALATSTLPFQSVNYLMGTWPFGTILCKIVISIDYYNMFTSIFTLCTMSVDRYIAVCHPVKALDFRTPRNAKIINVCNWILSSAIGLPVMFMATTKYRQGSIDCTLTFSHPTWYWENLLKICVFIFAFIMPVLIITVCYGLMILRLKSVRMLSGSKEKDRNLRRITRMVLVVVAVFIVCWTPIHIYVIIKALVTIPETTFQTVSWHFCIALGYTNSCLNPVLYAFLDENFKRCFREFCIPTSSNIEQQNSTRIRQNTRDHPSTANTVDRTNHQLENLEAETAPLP

[7] = microbe, parasite or virus in culture; type: functional; settings: Mycobacterium tuberculosis
[8] = target: T3, Delta-type opioid receptor (Homo sapiens, UniProt P41143); experiment: HTS Image-Based Screen for Antagonists of the DOR Receptor. [Related pubchem assays (depositor defined):AID1777, AID1785, AID1786, AID2133]; type: functional
T3 sequence (P41143 whole entry): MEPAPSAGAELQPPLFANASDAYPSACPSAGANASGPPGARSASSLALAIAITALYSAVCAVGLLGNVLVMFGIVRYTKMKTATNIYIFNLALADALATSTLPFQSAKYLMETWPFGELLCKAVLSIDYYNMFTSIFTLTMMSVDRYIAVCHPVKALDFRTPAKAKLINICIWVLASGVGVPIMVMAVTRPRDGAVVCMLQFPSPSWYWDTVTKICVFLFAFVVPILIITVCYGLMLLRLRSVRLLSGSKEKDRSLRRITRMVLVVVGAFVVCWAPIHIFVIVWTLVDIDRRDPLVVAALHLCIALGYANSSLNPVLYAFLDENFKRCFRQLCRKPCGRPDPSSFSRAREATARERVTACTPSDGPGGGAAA

HEK293 [9] = experiment: cells; settings: Homo sapiens
[10] = Shn3 3'UTR reporter inhibitors, dose response, cell-based, Clone20 osteoblasts, firefly luciferase, cherry-picked (AID 624132); type: functional;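 also: firefly luciferase luminescence from reporter carrying the Shn3 3'UTR in osteoblasts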
[11] = target: T4, Short transient receptor potential channel 4 (Mus musculus, UniProt Q9QUQ5); experiment: mouse TRPC4 channel activators, dose response, cell-based, HEK293 TRPC4/mu-opioid, Fluo-4 calcium (AID 434937); type: functional
T4 sequence (Q9QUQ5 whole entry): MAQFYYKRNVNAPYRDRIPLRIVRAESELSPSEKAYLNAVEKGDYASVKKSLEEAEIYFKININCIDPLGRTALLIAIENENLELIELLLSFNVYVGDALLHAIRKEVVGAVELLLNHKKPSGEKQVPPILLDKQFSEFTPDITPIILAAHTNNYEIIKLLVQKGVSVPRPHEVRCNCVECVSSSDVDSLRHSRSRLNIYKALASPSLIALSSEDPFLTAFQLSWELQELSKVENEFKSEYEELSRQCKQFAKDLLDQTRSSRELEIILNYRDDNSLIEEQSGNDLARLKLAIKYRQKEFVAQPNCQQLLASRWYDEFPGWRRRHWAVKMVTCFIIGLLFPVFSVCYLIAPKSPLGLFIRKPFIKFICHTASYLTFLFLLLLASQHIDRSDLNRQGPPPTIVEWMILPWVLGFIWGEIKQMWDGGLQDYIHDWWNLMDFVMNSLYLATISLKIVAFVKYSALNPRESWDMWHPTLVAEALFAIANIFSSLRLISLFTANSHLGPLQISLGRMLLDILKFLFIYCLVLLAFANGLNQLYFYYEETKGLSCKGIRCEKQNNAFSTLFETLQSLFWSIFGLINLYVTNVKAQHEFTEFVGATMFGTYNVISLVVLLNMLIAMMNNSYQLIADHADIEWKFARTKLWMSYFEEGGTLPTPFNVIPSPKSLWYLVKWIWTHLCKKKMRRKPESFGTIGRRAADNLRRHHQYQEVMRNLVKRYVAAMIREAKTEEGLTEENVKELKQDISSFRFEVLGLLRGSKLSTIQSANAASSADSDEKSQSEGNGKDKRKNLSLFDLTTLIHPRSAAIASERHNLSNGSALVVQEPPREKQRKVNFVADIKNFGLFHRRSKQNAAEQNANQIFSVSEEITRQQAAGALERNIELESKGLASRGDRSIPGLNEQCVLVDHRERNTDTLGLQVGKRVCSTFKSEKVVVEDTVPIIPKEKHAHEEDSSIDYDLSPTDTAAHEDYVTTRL

Beta-galactosidase = Beta-galactosidase (Escherichia coli, UniProt Q8VNN2); type: functional
[12] = target: T3, Delta-type opioid receptor; experiment: HTS Image-Based Screen for Agonists of the DOR Receptor. [Related pubchem assays (depositor defined):AID1777, AID1786, AID2133]; type: functional
[13] = HepG2 cell cytotoxicity, dose response, cytotoxicity control for Shn3 inhibitor project, CellTiter-Glo, cherry-picked (AID 624134); type: functional, cell-based
[14] = target: T5, Histone-lysine N-methyltransferase NSD2 (Homo sapiens, UniProt O96028); type: biochemical
T5 sequence (O96028 whole entry): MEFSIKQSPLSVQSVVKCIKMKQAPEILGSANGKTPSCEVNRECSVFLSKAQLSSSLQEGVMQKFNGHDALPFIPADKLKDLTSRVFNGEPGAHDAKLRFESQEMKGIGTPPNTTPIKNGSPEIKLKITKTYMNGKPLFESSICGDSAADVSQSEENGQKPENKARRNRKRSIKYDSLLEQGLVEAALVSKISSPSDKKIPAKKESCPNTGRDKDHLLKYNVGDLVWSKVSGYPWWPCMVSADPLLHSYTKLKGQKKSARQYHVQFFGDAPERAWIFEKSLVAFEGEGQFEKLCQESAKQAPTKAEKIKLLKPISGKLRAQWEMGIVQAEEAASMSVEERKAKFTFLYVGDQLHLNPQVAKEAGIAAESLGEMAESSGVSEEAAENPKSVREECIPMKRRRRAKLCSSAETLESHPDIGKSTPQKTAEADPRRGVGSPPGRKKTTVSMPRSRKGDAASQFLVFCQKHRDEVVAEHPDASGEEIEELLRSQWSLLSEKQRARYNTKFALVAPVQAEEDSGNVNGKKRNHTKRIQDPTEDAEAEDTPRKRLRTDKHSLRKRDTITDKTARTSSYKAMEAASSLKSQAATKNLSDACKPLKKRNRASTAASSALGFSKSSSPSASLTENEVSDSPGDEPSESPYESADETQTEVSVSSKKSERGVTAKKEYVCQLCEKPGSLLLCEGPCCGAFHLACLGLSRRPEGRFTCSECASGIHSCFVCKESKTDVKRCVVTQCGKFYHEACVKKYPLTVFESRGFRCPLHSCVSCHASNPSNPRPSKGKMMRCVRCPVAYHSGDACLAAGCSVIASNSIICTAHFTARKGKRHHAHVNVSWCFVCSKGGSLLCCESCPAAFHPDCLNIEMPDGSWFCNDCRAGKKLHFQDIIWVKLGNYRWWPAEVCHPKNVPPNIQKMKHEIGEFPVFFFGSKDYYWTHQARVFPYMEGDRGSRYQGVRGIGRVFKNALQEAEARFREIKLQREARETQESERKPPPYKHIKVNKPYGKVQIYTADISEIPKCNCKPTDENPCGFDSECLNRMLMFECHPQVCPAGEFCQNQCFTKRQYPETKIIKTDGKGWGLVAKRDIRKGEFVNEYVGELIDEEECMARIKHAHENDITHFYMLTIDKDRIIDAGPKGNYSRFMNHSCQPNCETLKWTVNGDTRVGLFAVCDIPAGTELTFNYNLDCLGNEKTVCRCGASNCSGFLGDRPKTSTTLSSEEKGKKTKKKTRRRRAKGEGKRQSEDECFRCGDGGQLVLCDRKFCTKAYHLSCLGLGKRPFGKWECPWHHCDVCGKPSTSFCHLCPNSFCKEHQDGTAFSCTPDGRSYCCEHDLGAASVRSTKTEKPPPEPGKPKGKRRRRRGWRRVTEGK

[15] = HEp-2 cell cytotoxicity, dose response, cytotoxicity control for RSV inhibitor project, HTS (AID 2410); type: functional; settings: human respiratory syncytial virus
HEK293 [16] = experiment: cells; settings: Homo sapiens; remark: listed apart in the source
[17] = inhibitors of firefly luciferase expression or activity, dose response, H4 neuroglioma cells, luminescence (AID 1990); type: functional, cell-based
[18] = inhibitors of SNCA 5'UTR-driven reporter translation, confirmation, H4 neuroglioma cells, luminescence (AID 1988); type: functional, cell-based
[19] = Luminescence Cell-Based Dose Response HTS to Identify Inhibitors of 5'UTR Stem-Loop Driven Prion Protein mRNA Translation in H4 Neuroglioblastoma Cells. [Related pubchem assays: 1827 (Project Summary), 1813 (Primary HTS)]; type: functional
[20] = cytotoxicity in HEK-293T cells, dose response, cytotoxicity control for BCR NF-kB inhibitor project, luminescence, B-cell screen hits (AID 489021); type: functional, cell-based;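 also: HEK-293T cells carrying an NF-kB luciferase reporter; cells exposed to compound for about 14 hours before viability readout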
H9c2 = experiment: cells; type: functional, cell-based; settings: Rattus norvegicus, H9c2, Myocardium;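 also: confirmatory concentration-response retest of ultra-high-throughput screening hits for modulation of myocardial damage; cell death induced by hydrogen peroxide oxidative stress; compound pretreatment for 60 min then peroxide exposure for 2 h; potency is for protecting the cells against peroxide damage rather than for killing them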
[21] = target: G-protein coupled receptor 55 (Homo sapiens, UniProt Q9Y2T6); experiment: GPR55 agonists via beta-arrestin recruitment, primary screen, imaging, U2OS cells, beta-arrestin-GFP redistribution (AID 1961); type: functional
Chain of G-protein coupled receptor 55 (Q9Y2T6 whole entry): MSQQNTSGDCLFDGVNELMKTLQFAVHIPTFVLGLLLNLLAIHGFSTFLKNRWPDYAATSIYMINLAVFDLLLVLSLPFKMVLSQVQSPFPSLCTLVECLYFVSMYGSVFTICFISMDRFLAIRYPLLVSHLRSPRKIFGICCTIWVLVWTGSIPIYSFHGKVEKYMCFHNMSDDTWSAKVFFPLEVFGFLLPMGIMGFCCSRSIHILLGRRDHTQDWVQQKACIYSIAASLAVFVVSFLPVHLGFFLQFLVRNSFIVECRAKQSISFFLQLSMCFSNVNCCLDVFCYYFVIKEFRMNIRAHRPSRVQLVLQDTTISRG

[22] = target: T6, Voltage-gated N-type calcium channel alpha-1B subunit/Amyloid beta A4 precursor protein-binding family A member 1 (Homo sapiens, UniProt Q00975+Q02410); type: protein assay
T6 sequence (Q00975 whole entry): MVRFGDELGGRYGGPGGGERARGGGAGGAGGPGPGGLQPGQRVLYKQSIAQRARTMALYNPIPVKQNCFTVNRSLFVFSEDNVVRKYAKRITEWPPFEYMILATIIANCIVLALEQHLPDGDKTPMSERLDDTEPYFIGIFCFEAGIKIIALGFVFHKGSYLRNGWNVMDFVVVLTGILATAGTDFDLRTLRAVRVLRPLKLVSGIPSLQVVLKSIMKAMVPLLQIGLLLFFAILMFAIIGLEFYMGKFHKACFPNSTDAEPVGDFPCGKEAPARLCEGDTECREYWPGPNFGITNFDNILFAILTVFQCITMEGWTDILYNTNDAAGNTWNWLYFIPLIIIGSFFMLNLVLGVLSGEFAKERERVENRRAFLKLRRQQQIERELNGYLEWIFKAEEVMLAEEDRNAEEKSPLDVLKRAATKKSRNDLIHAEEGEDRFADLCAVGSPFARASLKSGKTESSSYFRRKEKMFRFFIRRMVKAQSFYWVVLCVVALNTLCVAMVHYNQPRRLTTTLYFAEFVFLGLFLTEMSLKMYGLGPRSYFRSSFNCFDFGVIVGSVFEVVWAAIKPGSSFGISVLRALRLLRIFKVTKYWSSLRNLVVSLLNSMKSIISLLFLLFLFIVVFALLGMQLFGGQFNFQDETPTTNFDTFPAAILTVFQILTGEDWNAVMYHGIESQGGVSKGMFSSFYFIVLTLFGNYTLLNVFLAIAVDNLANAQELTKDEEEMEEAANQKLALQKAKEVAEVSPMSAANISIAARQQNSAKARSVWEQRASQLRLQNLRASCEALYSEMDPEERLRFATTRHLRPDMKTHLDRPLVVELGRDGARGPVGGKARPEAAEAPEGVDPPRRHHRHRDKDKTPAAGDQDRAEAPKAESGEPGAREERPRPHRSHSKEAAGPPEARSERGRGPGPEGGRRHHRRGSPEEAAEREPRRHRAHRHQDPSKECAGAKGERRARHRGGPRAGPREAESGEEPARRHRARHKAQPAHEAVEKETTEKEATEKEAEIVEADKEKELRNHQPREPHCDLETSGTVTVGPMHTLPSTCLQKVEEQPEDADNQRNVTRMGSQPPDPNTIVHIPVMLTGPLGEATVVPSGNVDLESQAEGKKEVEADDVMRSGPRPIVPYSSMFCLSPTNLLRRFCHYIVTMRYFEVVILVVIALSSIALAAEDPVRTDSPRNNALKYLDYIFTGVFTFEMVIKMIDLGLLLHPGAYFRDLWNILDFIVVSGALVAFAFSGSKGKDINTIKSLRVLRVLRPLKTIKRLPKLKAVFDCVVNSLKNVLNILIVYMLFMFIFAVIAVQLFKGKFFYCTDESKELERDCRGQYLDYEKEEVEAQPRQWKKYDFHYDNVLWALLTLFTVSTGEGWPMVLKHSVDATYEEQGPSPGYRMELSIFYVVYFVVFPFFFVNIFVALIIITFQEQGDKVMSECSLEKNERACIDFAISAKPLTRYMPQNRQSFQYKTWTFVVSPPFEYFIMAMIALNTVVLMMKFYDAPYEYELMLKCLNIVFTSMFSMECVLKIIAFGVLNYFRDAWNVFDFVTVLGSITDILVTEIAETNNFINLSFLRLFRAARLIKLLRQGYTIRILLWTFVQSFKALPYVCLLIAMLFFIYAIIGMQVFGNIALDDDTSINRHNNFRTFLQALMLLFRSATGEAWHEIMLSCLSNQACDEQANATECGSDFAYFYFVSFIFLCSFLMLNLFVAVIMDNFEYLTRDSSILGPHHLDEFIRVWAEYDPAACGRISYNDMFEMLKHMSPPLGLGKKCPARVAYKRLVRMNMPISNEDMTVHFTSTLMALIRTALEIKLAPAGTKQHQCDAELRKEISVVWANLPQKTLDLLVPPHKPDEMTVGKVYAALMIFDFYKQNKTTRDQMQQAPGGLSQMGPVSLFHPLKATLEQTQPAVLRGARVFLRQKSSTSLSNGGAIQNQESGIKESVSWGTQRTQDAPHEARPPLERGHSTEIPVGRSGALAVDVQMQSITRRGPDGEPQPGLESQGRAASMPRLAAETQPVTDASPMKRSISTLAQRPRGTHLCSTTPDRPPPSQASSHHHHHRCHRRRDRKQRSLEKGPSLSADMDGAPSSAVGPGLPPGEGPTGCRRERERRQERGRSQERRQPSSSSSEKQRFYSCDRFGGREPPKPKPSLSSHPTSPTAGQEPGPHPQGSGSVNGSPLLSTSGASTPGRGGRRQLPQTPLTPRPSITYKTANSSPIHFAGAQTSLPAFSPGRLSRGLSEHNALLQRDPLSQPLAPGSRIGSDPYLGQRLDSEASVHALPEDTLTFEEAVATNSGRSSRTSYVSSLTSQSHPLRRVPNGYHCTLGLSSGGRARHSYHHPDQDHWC
T6 sequence (Q02410 whole entry): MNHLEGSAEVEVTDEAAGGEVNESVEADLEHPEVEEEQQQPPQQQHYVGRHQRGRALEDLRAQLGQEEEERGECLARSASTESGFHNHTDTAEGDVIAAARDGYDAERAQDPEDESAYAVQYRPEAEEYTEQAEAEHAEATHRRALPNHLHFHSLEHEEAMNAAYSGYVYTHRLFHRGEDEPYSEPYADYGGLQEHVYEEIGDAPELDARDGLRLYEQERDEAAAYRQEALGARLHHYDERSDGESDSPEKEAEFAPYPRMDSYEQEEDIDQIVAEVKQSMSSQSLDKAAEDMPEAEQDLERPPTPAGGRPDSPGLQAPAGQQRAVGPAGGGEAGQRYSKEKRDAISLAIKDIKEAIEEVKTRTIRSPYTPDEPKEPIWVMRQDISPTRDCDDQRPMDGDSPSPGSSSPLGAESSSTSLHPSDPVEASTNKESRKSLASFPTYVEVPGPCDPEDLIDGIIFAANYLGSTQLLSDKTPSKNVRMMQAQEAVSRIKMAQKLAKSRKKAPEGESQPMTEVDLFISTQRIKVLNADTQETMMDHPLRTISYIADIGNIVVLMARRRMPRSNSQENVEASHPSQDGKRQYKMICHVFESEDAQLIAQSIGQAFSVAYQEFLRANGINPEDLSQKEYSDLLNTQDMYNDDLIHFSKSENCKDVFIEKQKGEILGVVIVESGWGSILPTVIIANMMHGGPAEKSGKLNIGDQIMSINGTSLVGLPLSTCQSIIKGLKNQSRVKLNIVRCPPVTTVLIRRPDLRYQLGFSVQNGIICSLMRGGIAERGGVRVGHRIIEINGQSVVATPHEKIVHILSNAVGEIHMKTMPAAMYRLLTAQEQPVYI

[23] = target: T6, Voltage-gated N-type calcium channel alpha-1B subunit/Amyloid beta A4 precursor protein-binding family A member 1; type: protein assay; remark: listed apart in the source

CCOC(=O)c1cn(Cc2ccccc2)nn1
IC50 (Coagulation factor XII): > 50 µM (inactive)

O=C(C1=C(O)C(=O)N(CCCN2CCOCC2)C1c1ccncc1)c1cc2ccccc2o1 (stereo not drawn)
EC50 [1]: > 79.4 µM (not active)
EC50 [2]: > 79.4 µM (not active)
EC50 [3]: > 79.4 µM (inactive)

Cc1ccccc1CSc1nncn1N
IC50 [4]: > 64 µM (inactive)

COc1cc(OC)c(OC)cc1CCC(C)NCCC(c1ccccc1)c1ccccc1 (stereo not drawn)
IC50 [5]: 10.9 µM (active)
IC50 [6]: > 32 µM
EC50 (Mu-type opioid receptor): > 32 µM (inactive)
CC50 [7]: 13.9 µM (active)
IC50 [8]: 24.4 µM (inactive)
EC50 (HEK293 [9]): > 59.6 µM (inactive)
AC50 [10]: 3.99 µM (active)
EC50 [11]: 6.68 µM (active)
EC50 (Beta-galactosidase): > 31.5 µM (inactive)
EC50 [12]: > 32 µM (inactive)
AC50 [13]: 8.98 µM (active)
AC50 [14]: 15.8 µM (active)
CC50 [15]: 14.6 µM (active)
EC50 (HEK293 [16]): > 59.6 µM (inactive)

COc1cc(OC)cc(-c2cc3nc(C)c(CCC(=O)Nc4nc(C)cs4)c(C)n3n2)c1
EC50 [17]: 16.9 µM (active)
EC50 [18]: 24.2 µM (active)
EC50 [19]: 13.2 µM (active)
IC50 [20]: > 80 µM (inactive)
IC50 (H9c2): > 79 µM (inactive)

CCc1cccc(OCC(=O)Nc2cc(S(=O)(=O)N3CCOCC3)ccc2N2CCCC2)c1
EC50 [21]: 4.03 µM (active)

O=C(CC1CCCCC1)NCC1CCCO1 (stereo not drawn)
IC50 [4]: > 64 µM (inactive)

COc1ccc(C(=O)NC(=S)Nc2ccc(NC(=O)c3ccco3)cc2)cc1[N+](=O)[O-]
IC50 [22]: 11.9 µM (active)
IC50 [23]: > 50 µM (inactive)

CCc1cc2c(=O)c(Oc3ccccc3F)c(C)oc2c(CN(C)C)c1O
IC50 [22]: 1.5 µM (active)
IC50 [23]: > 50 µM (inactive)

COc1ccc(CCNC(=O)Cn2cnc3c(cnn3-c3ccccc3Cl)c2=O)cc1OC
IC50 [4]: > 64 µM (inactive)

Fc1ccc(-c2csc3ncnc(Nc4ccc(N5CCOCC5)cc4)c23)cc1
EC50 (HEK293 [9]): > 59.6 µM (inactive)
EC50 (HEK293 [16]): > 59.6 µM (inactive)

COC(=O)c1ccc(C2C(C(=O)c3cc4ccccc4o3)=C(O)C(=O)N2CCCN(C)C)cc1 (stereo not drawn)
EC50 [1]: > 79.4 µM (not active)
EC50 [2]: 51.9 µM (not active)
EC50 [3]: > 79.4 µM (inactive)

CN1CCN(c2ncnc(Cl)c2N)CC1
IC50 (Coagulation factor XII): > 50 µM (inactive)

O=C(O/N=C(\c1ccccc1)c1ccccn1)c1cccc2ccccc12
EC50 [21]: > 32 µM (inactive)
